Data as given in patent publication US20050004186A1, “MEK inhibiting compounds” (Pfizer Inc, priority 2002, published 2005).
pIC50: −log10 of the molar value.

System: MEK
Experiment: Cellular assay for measuring MEK inhibition, C26CPA1 (inhibition of ERK phosphorylation in C26 cells)
Type: cell-based, murine
Details: for pIC50: murine colon 26 (C26) carcinoma cells, one hour at 37 C; for C26CPA1 % Inhibition @ 0.1 μM / C26CPA1 % Inhibition @ 1 μM: C26 cells
Description: Cellular Assay for Measuring MEK Inhibition
MEK inhibitors were evaluated by determining their ability to inhibit phosphorylation of MAP kinase (ERK) in murine colon 26 (C26) carcinoma cells. Since ERK1 and ERK2 represent the only known substrates for MEK1 and MEK2, the measurement of inhibition of ERK phosphorylation in cells provides direct read out of cellular MEK inhibition by the compounds of the invention. Detection of phosphorylation of ERK was carried out either by Western blot or ELISA format. Briefly, the assays involve treatment of exponentially growing C26 cells with varying concentrations of the test compound (or vehicle control) for one hour at 37≡ C. For Western blot assay, cells were rinsed free of compound/vehicle and lysed in a solution containing 70 mM NaCl, 50 mM glycerol phosphate, 10 mM HEPES, […], 1% Triton X-100, 1 mM Na3VO4, 100 μM PMSF, 10 μM leupeptin and 10 μM pepstatin. Supernatants were then subjected to gel electrophoresis and hybridized to a primary antibody recognizing dually phosphorylated ERK1 and ERK2. To evaluate total MAPK levels, blots were subsequently ‘stripped’ and re-probed with a 1:1 mixture of polyclonal antibodies recognizing unphosphorylated ERK1 and ERK2. For pERK ELISA assay, pERK TiterZyme Enzyme immunometric Assay kits were acquired from Assay Designs, Inc (Ann Arbor, Mich.). Briefly, cells were harvested in lysis solution containing 50 mM β-glycerophosphate, 10 mM HEPES, pH7.4, 70 mM NaCl, 2 mM EDTA and 1% SDS and protein lysates were diluted 1:15 with supplied Assay buffer prior to the execution of the assay. The subsequent steps were carried out essentially as recommended by the manufacturer.

Nc1nnc(-c2cc(Cl)c(F)c(F)c2Nc2ccc(I)cc2F)o1 [Example 2, 5-[5-Chloro-3,4-difluoro-2-(2-fluoro-4-iodo-phenylamino)-phenyl]-[1,3,4]oxadiazol-2-ylamine]
pIC50: 7.74

Nc1nnc(-c2ccc(F)c(F)c2Nc2ccc(Br)cc2F)o1 [Example 3, 5-[2-(4-Bromo-2-fluoro-phenylamino)-3,4-difluoro-phenyl]-[1.3,4]oxadiazol-2-ylamine]
pIC50: 6.85

Fc1cc(I)ccc1Nc1c(-c2nnc(NCCCN3CCOCC3)o2)ccc(F)c1F [Example 9, {5-[3,4-Difluoro-2-(2-fluoro-4-iodo-phenylamino)-phenyl]-[1,3,4]oxadiazol-2-yl}-(3-morpholin-4-yl-propyl)-amine]
pIC50: 6.51

CN(C)CCCN(C)c1nnc(-c2ccc(F)c(F)c2Nc2ccc(I)cc2F)o1 [Example 12, N-{5-[3,4-Difluoro-2-(2-fluoro-4-iodo-phenylamino)-phenyl]-[1,3,4]oxadiazol-2-yl}-N,N′,N′-trimethyl-propane-1,3-diamine]
pIC50: < 6.00

Fc1cc(I)ccc1Nc1c(-c2nnc(NCCN3CCCCC3)o2)ccc(F)c1F [Example 13, {5-[3,4-Difluoro-2-(2-fluoro-4-iodo-phenylamino)-phenyl]-[1,3,4]oxadiazol-2-yl}-(2-piperidin-1-yl-ethyl)-amine]
pIC50: 6.42

NCCCCNc1nnc(-c2ccc(F)c(F)c2Nc2ccc(I)cc2F)o1 [Example 14, N′1′-{5-[3,4-Difluoro-2-(2-fluoro-4-iodo-phenylamino)-phenyl]-[1,3,4]oxadiazol-2-yl}-butane-1,4-diamine]
pIC50: 7.35

NCCCNc1nnc(-c2ccc(F)c(F)c2Nc2ccc(I)cc2F)o1 [Example 15, N′1′-{5-[3,4-Difluoro-2-(2-fluoro-4-iodo-phenylamino)-phenyl]-[1,3,4]oxadiazol-2-yl}-propane-1,3-diamine]
pIC50: 7.12

CN(C)CCCNc1nnc(-c2ccc(F)c(F)c2Nc2ccc(I)cc2F)o1 [Example 16, N-{5-[3,4-Difluoro-2-(2-fluoro-4-iodo-phenylamino)-phenyl]-[1,3,4]oxadiazol-2-yl}-N′,N′-dimethyl-propane-1,3-diamine]
pIC50: 6.87

CN(C)CCNc1nnc(-c2ccc(F)c(F)c2Nc2ccc(I)cc2F)o1 [Example 17, N-{5-[3,4-Difluoro-2-(2-fluoro-4-iodo-phenylamino)-phenyl]-[1,3,4]oxadiazol-2-yl}-N′,N′-dimethyl-ethane-1,2-diamine]
pIC50: 6.85

CNCCNc1nnc(-c2ccc(F)c(F)c2Nc2ccc(I)cc2F)o1 [Example 18, N-{5-[3,4-Difluoro-2-(2-fluoro-4-iodo-phenylamino)-phenyl]-[1,3,4]oxadiazol-2-yl}-N′-methyl-ethane-1,2-diamine]
pIC50: 7.57

COCCCNc1nnc(-c2ccc(F)c(F)c2Nc2ccc(I)cc2F)o1 [Example 20, {5-[3,4-Difluoro-2-(2-fluoro-4-iodo-phenylamino)-phenyl]-[1,3,4]oxadiazol-2-yl}-(3-methoxy-propyl)-amine]
pIC50: 7.10

COCCNc1nnc(-c2ccc(F)c(F)c2Nc2ccc(I)cc2F)o1 [Example 33, {5-[3,4-Difluoro-2-(2-fluoro-4-iodo-phenylamino)-phenyl]-[1,3,4]oxadiazol-2-yl}-(2-methoxy-ethyl)-amine]
C26CPA1 % Inhibition @ 0.1 μM: 0%
C26CPA1 % Inhibition @ 1 μM: 57.7%

Fc1cc(I)ccc1Nc1c(-c2nnc(NCCOc3ccccc3)o2)ccc(F)c1F [Example 34, {5-[3,4-Difluoro-2-(2-fluoro-4-iodo-phenylamino)-phenyl]-[1,3,4]oxadiazol-2-yl}-(2-phenoxy-ethyl)-amine]
C26CPA1 % Inhibition @ 0.1 μM: 0%
C26CPA1 % Inhibition @ 1 μM: 69%

Fc1cc(I)ccc1Nc1c(-c2nnc(NCCc3ccncc3)o2)ccc(F)c1F [Example 35, {5-[3,4-Difluoro-2-(2-fluoro-4-iodo-phenylamino)-phenyl]-[1,3,4]oxadiazol-2-yl}-(2-pyridin-4-yl-ethyl)-amine]
C26CPA1 % Inhibition @ 0.1 μM: 0%
C26CPA1 % Inhibition @ 1 μM: 74.9%

CCCCNc1nnc(-c2ccc(F)c(F)c2Nc2ccc(I)cc2F)o1 [Example 36, Butyl-{5-[3,4-difluoro-2-(2-fluoro-4-iodo-phenylamino)-phenyl]-[1,3,4]oxadiazol-2-yl}-amine]
C26CPA1 % Inhibition @ 0.1 μM: 23.8%
C26CPA1 % Inhibition @ 1 μM: 67%

Cc1ccc(CNc2nnc(-c3ccc(F)c(F)c3Nc3ccc(I)cc3F)o2)o1 [Example 37, {5-[3,4-Difluoro-2-(2-fluoro-4-iodo-phenylamino)-phenyl]-[1,3,4]oxadiazol-2-yl}-(5-methyl-furan-2-ylmethyl)-amine]
C26CPA1 % Inhibition @ 0.1 μM: 18.4%
C26CPA1 % Inhibition @ 1 μM: 87.2%

Fc1cc(I)ccc1Nc1c(-c2nnc(NCCc3cccs3)o2)ccc(F)c1F [Example 38, {5-[3,4-Difluoro-2-(2-fluoro-4-iodo-phenylamino)-phenyl]-[1,3,4]oxadiazol-2-yl}-(2-thiophen-2-yl-ethyl)-amine]
C26CPA1 % Inhibition @ 0.1 μM: 0%
C26CPA1 % Inhibition @ 1 μM: 65.1%

COc1cccc(CCNc2nnc(-c3ccc(F)c(F)c3Nc3ccc(I)cc3F)o2)c1 [Example 39, {5-[3,4-Difluoro-2-(2-fluoro-4-iodo-phenylamino)-phenyl]-[1,3,4]oxadiazol-2-yl}-[2-(3-methoxy-phenyl)-ethyl]-amine]
C26CPA1 % Inhibition @ 0.1 μM: 0%
C26CPA1 % Inhibition @ 1 μM: 40.2%

COc1ccc(CCNc2nnc(-c3ccc(F)c(F)c3Nc3ccc(I)cc3F)o2)cc1OC [Example 40, {5-[3,4-Difluoro-2-(2-fluoro-4-iodo-phenylamino)-phenyl]-[1,3,4]oxadiazol-2-yl}-[2-(3,4-dimethoxy-phenyl)-ethyl]-amine]
C26CPA1 % Inhibition @ 0.1 μM: 0%
C26CPA1 % Inhibition @ 1 μM: 26.2%

COc1ccc(OC)c(CCNc2nnc(-c3ccc(F)c(F)c3Nc3ccc(I)cc3F)o2)c1 [Example 41, {5-[3,4-Difluoro-2-(2-fluoro-4-iodo-phenylamino)-phenyl]-[1,3,4]oxadiazol-2-yl}-[2-(2,5-dimethoxy-phenyl)-ethyl]-amine]
C26CPA1 % Inhibition @ 0.1 μM: 0%
C26CPA1 % Inhibition @ 1 μM: 29.8%

COc1ccc(CCN(C)c2nnc(-c3ccc(F)c(F)c3Nc3ccc(I)cc3F)o2)cc1OC [Example 42, {5-[3,4-Difluoro-2-(2-fluoro-4-iodo-phenylamino)-phenyl]-[1,3,4]oxadiazol-2-yl}-[2-(3,4-dimethoxy-phenyl)-ethyl]-methyl-amine]
C26CPA1 % Inhibition @ 0.1 μM: 8.3%
C26CPA1 % Inhibition @ 1 μM: 10%

CN(CCc1ccncc1)c1nnc(-c2ccc(F)c(F)c2Nc2ccc(I)cc2F)o1 [Example 43, {5-[3,4-Difluoro-2-(2-fluoro-4-iodo-phenylamino)-phenyl]-[1,3,4]oxadiazol-2-yl}-methyl-(2-pyridin-4-yl-ethyl)-amine]
C26CPA1 % Inhibition @ 0.1 μM: 26.6%
C26CPA1 % Inhibition @ 1 μM: 31.7%

CN(CCc1ccccn1)c1nnc(-c2ccc(F)c(F)c2Nc2ccc(I)cc2F)o1 [Example 44, {5-[3,4-Difluoro-2-(2-fluoro-4-iodo-phenylamino)-phenyl]-[1,3,4]oxadiazol-2-yl}-methyl-(2-pyridin-2-yl-ethyl)-amine]
C26CPA1 % Inhibition @ 0.1 μM: 5.2%
C26CPA1 % Inhibition @ 1 μM: 19%

CCCNc1nnc(-c2ccc(F)c(F)c2Nc2ccc(I)cc2F)o1 [Example 45, {5-[3,4-Difluoro-2-(2-fluoro-4-iodo-phenylamino)-phenyl]-[1,3,4]oxadiazol-2-yl}-propyl-amine]
C26CPA1 % Inhibition @ 0.1 μM: 3.1%
C26CPA1 % Inhibition @ 1 μM: 31.4%

CCC(C)Nc1nnc(-c2ccc(F)c(F)c2Nc2ccc(I)cc2F)o1 (stereo not shown) [Example 46, sec-Butyl-{5-[3,4-difluoro-2-(2-fluoro-4-iodo-phenylamino)-phenyl]-[1,3,4]oxadiazol-2-yl}-amine]
C26CPA1 % Inhibition @ 0.1 μM: 31.2%
C26CPA1 % Inhibition @ 1 μM: 31.6%

CC(C)(C)CNc1nnc(-c2ccc(F)c(F)c2Nc2ccc(I)cc2F)o1 [Example 47, {5-[3,4-Difluoro-2-(2-fluoro-4-iodo-phenylamino)-phenyl]-[1,3,4]oxadiazol-2-yl}-(2,2-dimethyl-propyl)-amine]
C26CPA1 % Inhibition @ 0.1 μM: 18.9%
C26CPA1 % Inhibition @ 1 μM: 43.2%

CC(C)CNc1nnc(-c2ccc(F)c(F)c2Nc2ccc(I)cc2F)o1 [Example 48, {5-[3,4-Difluoro-2-(2-fluoro-4-iodo-phenylamino)-phenyl]-[1,3,4]oxadiazol-2-yl}-isobutyl-amine]
C26CPA1 % Inhibition @ 0.1 μM: 31.7%
C26CPA1 % Inhibition @ 1 μM: 66.9%
